# Key:
# GEN1 = target: T1, GEN1 (Homo sapiens, UniProt Q17RS7); assay: Fluorescence-based nuclease activity assay, GEN1; type: biochemical; conditions: n = 11, SD = 569; cognate substrate
# T1 construct: Truncated GEN1 (1-527) was expressed in insect cells; Strep-tag (implied by Streptrap column); made in house; host or cells: insect cells
# Method: (§1) MSC778 was dissolved in dimethyl sulphoxide (DMSO) to give a 10 mM stock. FEN1/EXO1: compound was dispensed into black 384-shallow well microplates (Greiner #784076). The compound was dispensed as an 11-point dose response with a 3-fold serial dilution from a top concentration of 10 mM (to give a final in-assay concentration of 100 µM). GEN1/XPG: MSC778 was dispensed into black 1536-well plates (Greiner #782076). The compound was dispensed as a 20-point dose response with a 3-fold serial dilution from a top concentration of 10 mM (to give a final in-assay concentration of 100 µM). The volume of DMSO was adjusted to ensure that each well contained 1% (v/v) DMSO in the final assay. Control wells containing DMSO alone or inhibitor at sufficient concentration to cause complete inhibition of the reaction were also included. […]
# (§2) 5 µl (FEN1/EXO1) or 3 µl per well (GEN1/XPG) of stop buffer (20 mM Tris pH 7.5, 300 mM EDTA) was added to all wells, then the plates were read on the CLARIOstar Plus (BMG LABTECH Ltd.) using the Fluorescein (FITC) wavelengths (Ex 483 ± 14, Em 530 ± 30, Dichroic auto/502.5) and auto focal height/gain settings.
# (§3) All data analysis was carried out using Genedata Screener software. IC50 values were calculated using the SmartFit function.
# XPG = target: T2, XPG (Homo sapiens, UniProt P28715); assay: Fluorescence-based nuclease activity assay, XPG; type: biochemical; conditions: n = 10, SD = 0.86; cognate substrate
# T2 construct: XPG (1-1186); Strep-tag (C); made in house; host or cells: Sf9 insect cells
# T2 sequence (P28715 whole entry): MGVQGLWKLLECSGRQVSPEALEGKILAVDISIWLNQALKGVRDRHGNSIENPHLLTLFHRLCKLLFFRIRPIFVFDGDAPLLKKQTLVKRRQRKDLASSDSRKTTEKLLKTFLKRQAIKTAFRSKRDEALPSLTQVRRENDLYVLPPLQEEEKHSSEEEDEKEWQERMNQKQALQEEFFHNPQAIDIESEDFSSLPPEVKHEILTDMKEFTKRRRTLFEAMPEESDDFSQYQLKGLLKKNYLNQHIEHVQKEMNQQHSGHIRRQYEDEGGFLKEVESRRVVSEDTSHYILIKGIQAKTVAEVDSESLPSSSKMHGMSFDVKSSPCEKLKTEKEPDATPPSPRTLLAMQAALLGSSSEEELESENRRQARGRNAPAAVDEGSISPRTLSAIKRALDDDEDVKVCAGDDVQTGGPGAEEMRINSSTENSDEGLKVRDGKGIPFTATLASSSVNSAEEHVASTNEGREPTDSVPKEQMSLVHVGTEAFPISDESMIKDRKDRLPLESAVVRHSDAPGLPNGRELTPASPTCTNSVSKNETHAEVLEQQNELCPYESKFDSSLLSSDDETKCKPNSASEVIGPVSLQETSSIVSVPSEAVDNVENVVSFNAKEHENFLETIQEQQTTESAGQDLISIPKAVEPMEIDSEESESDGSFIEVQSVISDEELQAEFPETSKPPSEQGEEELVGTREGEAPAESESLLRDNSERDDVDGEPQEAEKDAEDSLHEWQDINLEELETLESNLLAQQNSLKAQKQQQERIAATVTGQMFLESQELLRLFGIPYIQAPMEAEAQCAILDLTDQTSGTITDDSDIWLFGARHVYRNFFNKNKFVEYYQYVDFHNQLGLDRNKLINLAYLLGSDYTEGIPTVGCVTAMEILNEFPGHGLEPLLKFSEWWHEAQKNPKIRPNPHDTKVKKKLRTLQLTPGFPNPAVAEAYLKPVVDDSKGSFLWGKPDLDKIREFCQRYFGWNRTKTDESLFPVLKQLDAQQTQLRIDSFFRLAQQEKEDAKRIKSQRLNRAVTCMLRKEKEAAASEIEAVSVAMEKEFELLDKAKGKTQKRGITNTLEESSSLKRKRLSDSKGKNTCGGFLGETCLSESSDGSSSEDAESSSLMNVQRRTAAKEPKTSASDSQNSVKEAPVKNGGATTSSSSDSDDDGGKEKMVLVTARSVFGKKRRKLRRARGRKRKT
# Method: as §1, §2, §3
# FEN1 (1-380) FL-6His = target: T3, FEN1 (1-380) FL-6His (Homo sapiens, UniProt P39748); assay: Differential scanning fluorimetry; type: binding; conditions: compound 100 µM
# T3 construct: FEN1(1-380)-6His was immobilized on a CM5 chip; made in house; host or cells: Escherichia coli
# T3 sequence (P39748 whole entry): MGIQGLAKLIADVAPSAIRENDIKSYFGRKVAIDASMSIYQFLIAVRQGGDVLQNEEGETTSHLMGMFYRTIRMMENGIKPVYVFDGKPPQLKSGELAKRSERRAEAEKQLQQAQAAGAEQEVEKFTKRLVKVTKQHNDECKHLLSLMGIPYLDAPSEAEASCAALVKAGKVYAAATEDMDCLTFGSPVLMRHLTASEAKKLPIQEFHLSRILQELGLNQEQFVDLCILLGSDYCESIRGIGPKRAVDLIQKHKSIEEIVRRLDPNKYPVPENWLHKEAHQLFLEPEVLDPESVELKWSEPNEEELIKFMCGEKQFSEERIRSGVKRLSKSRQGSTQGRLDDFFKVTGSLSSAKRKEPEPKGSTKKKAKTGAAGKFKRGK
# Method: A volume of 100 nl of each compound at stock concentration of 10 mM was dispensed into a 384-well skirted PCR Plate (MicroAmp™ Optical plate) using a D300e digital dispenser (Tecan). Wells were normalized such that each contained 1% (v/v) DMSO and final compound concentration of 100 µM.
# FEN1 (1-380) FL-6His protein (1.25×) and protein 5× thermal shift dye (Thermo Fisher Scientific) were prepared separately in freshly prepared differential scanning fluorimetry (DSF) assay buffer (20 mM Tris–HCl pH 7.5, 100 mM potassium chloride, 5 mM magnesium chloride, and 1 mM dithiothreitol). Eight microliters of 1.25× Fen1 (10 µM) was added to the appropriate well, plate sealed with aluminium sealing film (Axygen), and centrifuged at 500 × g for 1 min before incubating for 30 min at 4°C. After the incubation period, the plate was centrifuged again at 500 × g for 1 min and 2 µl of 5× protein thermal shift dye was added. […] Fluorescence was measured using a Quantstudio pro7.0 qPCR machine (Thermo Fisher Scientific) using internal optical ×1 filter (470 ± 15 nm) for excitation and m3 filter (586 ± 10 nm) for emission.
# Each experiment was run in quadruplicates and melting temperatures (Tm) calculated as the inflection point of the derivative function using the protein thermal shift software (Thermo Fisher Scientific). DeltaTm was calculated using the Tm of protein with 1% DMSO as reference.
# [1] = test system: EWS cells (MHH-ES-1, RD-ES); assay: Flow cytometric analysis of apoptosis (annexin V/PI); type: cell-based; conditions: 0.1 μM, 72 h
# Method: (§4) Apoptosis was measured using annexin V and propidium iodide (PI) staining using an Annexin V-fluorescein isothiocyanate (FITC) apoptosis detection kit (Thermo Fisher Scientific, V13242) according to manufacturer’s instructions.
# (§5) Briefly, cells were cultured in six-well plates and treated with FEN1 inhibitor at indicated concentrations for 72 h. The supernatant and adherent cells were collected and washed twice with ice-cold PBS, then re-suspended in 100 µl of 1× binding buffer. Annexin V-FITC conjugate (5 µl) and PI (1 µl) were added, and the cells were incubated at room temperature for 15 min in the dark. After addition of 300 µl of 1× binding buffer, the cells were analyzed using a flow cytometer (CytoFLEX, Beckman).
# [2] = test system: DLD-1, DLD-1 BRCA2KO, SUM149PT, MDA-MB-436 cells; assay: as above; type: cell-based; conditions: 1 μM, 72 h
# Method: as §4, §5
# U-2 OS cells = assay: as above; type: cell-based; conditions: 0.1 μM, 72 h
# Method: as §4, §5
# T1 sequence (Q17RS7 1-527): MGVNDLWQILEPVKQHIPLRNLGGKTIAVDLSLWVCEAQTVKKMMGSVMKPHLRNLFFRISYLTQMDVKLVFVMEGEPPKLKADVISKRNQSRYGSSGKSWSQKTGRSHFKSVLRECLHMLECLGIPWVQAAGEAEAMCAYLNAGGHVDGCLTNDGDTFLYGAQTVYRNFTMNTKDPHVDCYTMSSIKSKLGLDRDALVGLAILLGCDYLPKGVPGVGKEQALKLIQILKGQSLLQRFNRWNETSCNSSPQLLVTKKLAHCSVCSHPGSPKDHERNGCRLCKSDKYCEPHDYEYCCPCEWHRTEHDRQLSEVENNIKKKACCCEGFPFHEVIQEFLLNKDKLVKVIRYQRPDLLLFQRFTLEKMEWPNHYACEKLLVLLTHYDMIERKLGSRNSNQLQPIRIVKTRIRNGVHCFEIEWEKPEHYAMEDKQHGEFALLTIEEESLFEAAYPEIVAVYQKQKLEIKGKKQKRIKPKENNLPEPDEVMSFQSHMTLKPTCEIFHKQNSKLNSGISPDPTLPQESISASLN
structure (smiles),measurement,setting,value
C[C@H](Oc1nn2c(c(O)c1=O)C(=O)N1CCOC[C@@H]1C2)c1ccc2ccc(Cl)cc2c1 [MSC778],IC50,GEN1,1660 nM
same,IC50,XPG,218 nM
same,Thermal stabilization of FEN1 (DSF),FEN1 (1-380) FL-6His,thermally stabilized FEN1
same,Induction of cell death,[1],induced apoptotic cell death
same,Induction of cell death,[2],induced cell death by apoptosis
same,Induction of apoptotic cell death,U-2 OS cells,not

# Source: article PMC12684391, “Mechanistic insights into the monotherapy and combination potential of FEN1 inhibition in cancer therapy” (Nucleic Acids Research, 2025)
